Residues, ends and D or L forms follow the SMILES beside them. No end group written: not given here. *: point of attachment. Biotin = O=C1N[C@H]2[C@H](CS[C@H]2CCCCC(=O)*)N1
target: T1, human insulin receptor (HIR) (Homo sapiens, UniProt P06213); experiment: 125I-insulin competition binding assay on solubilised purified receptor; details: read-out: Kd (µM) HIR
T1 construct: made in house
T1 sequence (P06213 28-758 limits assumed): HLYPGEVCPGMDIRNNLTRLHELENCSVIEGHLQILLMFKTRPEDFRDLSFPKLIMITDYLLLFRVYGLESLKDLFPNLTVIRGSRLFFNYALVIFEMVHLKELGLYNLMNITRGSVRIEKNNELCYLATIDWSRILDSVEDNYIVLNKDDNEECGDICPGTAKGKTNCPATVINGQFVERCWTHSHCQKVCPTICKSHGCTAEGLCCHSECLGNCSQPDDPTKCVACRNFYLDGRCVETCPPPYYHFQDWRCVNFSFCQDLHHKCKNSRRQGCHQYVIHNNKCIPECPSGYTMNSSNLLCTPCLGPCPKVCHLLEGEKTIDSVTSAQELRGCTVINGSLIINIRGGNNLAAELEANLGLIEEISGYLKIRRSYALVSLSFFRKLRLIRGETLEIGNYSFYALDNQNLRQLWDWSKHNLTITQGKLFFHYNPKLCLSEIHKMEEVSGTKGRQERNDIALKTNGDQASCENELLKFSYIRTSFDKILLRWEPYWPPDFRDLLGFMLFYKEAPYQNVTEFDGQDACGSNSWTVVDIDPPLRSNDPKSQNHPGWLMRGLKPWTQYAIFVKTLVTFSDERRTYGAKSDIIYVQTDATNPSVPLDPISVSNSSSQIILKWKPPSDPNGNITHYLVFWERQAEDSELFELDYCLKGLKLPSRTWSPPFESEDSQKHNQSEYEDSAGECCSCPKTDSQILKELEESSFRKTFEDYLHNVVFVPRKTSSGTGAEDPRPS
T1 sequence (P06213 763-1382 limits assumed): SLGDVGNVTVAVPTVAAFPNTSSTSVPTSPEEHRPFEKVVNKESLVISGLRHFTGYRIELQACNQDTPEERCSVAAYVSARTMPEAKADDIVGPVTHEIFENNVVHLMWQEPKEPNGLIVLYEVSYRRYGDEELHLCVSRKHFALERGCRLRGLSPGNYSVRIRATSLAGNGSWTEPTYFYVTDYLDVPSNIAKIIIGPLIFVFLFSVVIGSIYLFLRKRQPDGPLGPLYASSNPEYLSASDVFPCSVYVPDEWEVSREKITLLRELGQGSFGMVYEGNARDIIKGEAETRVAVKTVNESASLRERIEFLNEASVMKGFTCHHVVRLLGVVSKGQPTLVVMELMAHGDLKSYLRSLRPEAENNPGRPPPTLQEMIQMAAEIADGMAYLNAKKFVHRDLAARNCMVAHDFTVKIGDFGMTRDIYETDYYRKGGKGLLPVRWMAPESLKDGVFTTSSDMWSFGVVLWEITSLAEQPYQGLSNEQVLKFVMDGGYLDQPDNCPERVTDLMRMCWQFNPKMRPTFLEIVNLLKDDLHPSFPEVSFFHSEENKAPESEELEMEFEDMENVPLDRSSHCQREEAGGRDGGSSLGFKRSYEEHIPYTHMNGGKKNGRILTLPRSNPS

Compound | Kd
CC(C)C[C@H](NC(=O)[C@H](C)NC(=O)[C@H](CO)NC(=O)[C@H](CCC(=O)O)NC(=O)[C@H](Cc1ccccc1)NC(=O)[C@H](Cc1c[nH]c2ccccc12)NC(=O)[C@H](CCC(=O)O)NC(=O)[C@H](Cc1ccc(O)cc1)NC(=O)[C@H](Cc1ccccc1)NC(=O)[C@@H](NC(=O)CNC(=O)CNC(=O)CNC(=O)[C@H](CCCNC(=N)N)NC(=O)[C@@H](N)CCCCN)[C@@H](C)O)C(=O)N[C@@H](CCCNC(=N)N)C(=O)N[C@@H](CCCCN)C(=O)N[C@@H](Cc1c[nH]cn1)C(=O)NCC(=O)N[C@@H](C)C(=O)NCC(=O)N[C@@H](CCCCN)C(=O)N[C@@H](CCCCNC(=O)CCCC[C@@H]1SC[C@@H]2NC(=O)N[C@@H]21)C(N)=O [Clone D110] (H-KRGGGTFYEWFESALRKHGAGKK(Biotin)-NH2) | 0.84 µM

test system: adipocytes; experiment: 3H-glucose uptake into adipocytes (fat cell assay, FFC); type: cell-based, Mouse; parameters: key to FFC: 0 is no effect; + is agonist; - is antagonist; details: not given

Compound | FFC
CC(C)[C@@H](NC(=O)[C@@H](Cc1ccccc1)NC(=O)[C@@H](Cc1c[nH]c2ccccc12)NC(=O)[C@@H](CC(=O)O)NC(=O)[C@@H](Cc1ccc(O)cc1)NC(=O)[C@@H](Cc1ccccc1)NC(=O)[C@@H](CC(N)=O)NC(=O)[C@@H](CCC(=O)O)NC(=O)[C@@H](Cc1c[nH]cn1)NC(=O)[C@H](N)Cc1ccccc1)C(=O)N[C@H](CCCNC(=N)N)C(=O)N[C@H](CCC(N)=O)C(=O)N[C@@H](C(=O)N[C@H](CO)C(=O)N[C@H](CCCCN)C(=O)N[C@H](CCCCN)C(=O)O)C(C)C [Clone S114] | 0
CC[C@H](C)[C@H](NC(=O)[C@H](C)NC(=O)[C@H](CC(N)=O)NC(=O)[C@H](Cc1ccc(O)cc1)NC(=O)[C@H](Cc1ccccc1)NC(=O)CNC(=O)[C@H](CC(=O)O)NC(=O)[C@@H](N)CO)C(=O)N[C@@H](CCC(=O)O)C(=O)N[C@@H](CC(C)C)C(=O)N[C@@H](CC(C)C)C(=O)N[C@@H](CO)C(=O)O [Clone S118] | +
CC(C)C[C@H](NC(=O)CNC(=O)[C@H](CCC(N)=O)NC(=O)[C@H](Cc1ccccc1)NC(=O)[C@H](Cc1ccc(O)cc1)NC(=O)[C@H](CO)NC(=O)[C@H](Cc1ccc(O)cc1)NC(=O)[C@H](Cc1ccccc1)NC(=O)[C@H](CC(=O)O)NC(=O)[C@H](CO)NC(=O)[C@@H](N)Cc1c[nH]c2ccccc12)C(=O)N[C@@H](CC(=O)O)C(=O)O [Clone S127] | 0
CC(C)[C@H](NC(=O)[C@H](Cc1ccccc1)NC(=O)[C@H](Cc1c[nH]c2ccccc12)NC(=O)[C@H](CC(=O)O)NC(=O)[C@H](Cc1ccc(O)cc1)NC(=O)[C@H](Cc1ccccc1)NC(=O)[C@H](CC(N)=O)NC(=O)[C@H](CCC(=O)O)NC(=O)[C@H](Cc1c[nH]cn1)NC(=O)[C@@H](N)Cc1ccccc1)C(=O)N[C@@H](CCCNC(=N)N)C(=O)N[C@@H](CCC(N)=O)C(=O)N[C@H](C(=O)N[C@@H](CO)C(=O)N[C@@H](CCCCN)C(=O)N[C@@H](CCCCN)C(=O)N[C@@H](CNC(=O)CON)C(N)=O)C(C)C [Clone S131] | +
CC(C)[C@H](NC(=O)[C@H](Cc1ccccc1)NC(=O)[C@H](Cc1c[nH]c2ccccc12)NC(=O)CNC(=O)[C@H](Cc1ccc(O)cc1)NC(=O)[C@H](Cc1ccccc1)NC(=O)[C@H](CC(N)=O)NC(=O)[C@H](CCC(=O)O)NC(=O)[C@@H](N)Cc1c[nH]cn1)C(=O)N[C@@H](CCCNC(=N)N)C(=O)N[C@@H](CCC(N)=O)C(=O)N[C@H](C(=O)N[C@@H](CO)C(=O)N[C@@H](CCCCN)C(=O)N[C@@H](CCCCN)C(=O)O)C(C)C [Clone S137] | 0
CC(C)[C@H](NC(=O)[C@H](Cc1ccccc1)NC(=O)[C@H](Cc1c[nH]c2ccccc12)NC(=O)[C@H](CC(=O)O)NC(=O)[C@H](Cc1ccc(O)cc1)NC(=O)[C@H](Cc1ccccc1)NC(=O)[C@H](CC(N)=O)NC(=O)[C@H](CCC(=O)O)NC(=O)[C@H](Cc1c[nH]cn1)NC(=O)[C@@H](N)Cc1ccccc1)C(=O)N[C@@H](CCCNC(=N)N)C(=O)N[C@@H](CCC(N)=O)C(=O)N[C@H](C(=O)N[C@@H](CO)C(=O)N[C@@H](CCCCN)C(=O)N[C@@H](CCCCN)C(=O)NCC[C@H](NC(=O)[C@H](CCCCN)NC(=O)[C@H](CCCCN)NC(=O)[C@H](CO)NC(=O)[C@@H](NC(=O)[C@H](CCC(N)=O)NC(=O)[C@H](CCCNC(=N)N)NC(=O)[C@@H](NC(=O)[C@H](Cc1ccccc1)NC(=O)[C@H](Cc1c[nH]c2ccccc12)NC(=O)[C@H](CC(=O)O)NC(=O)[C@H](Cc1ccc(O)cc1)NC(=O)[C@H](Cc1ccccc1)NC(=O)[C@H](CC(N)=O)NC(=O)[C@H](CCC(=O)O)NC(=O)[C@H](Cc1c[nH]cn1)NC(=O)[C@@H](N)Cc1ccccc1)C(C)C)C(C)C)C(N)=O)C(C)C [Clone S152] | +
CC(C)C[C@H](NC(=O)[C@H](CCC(=O)O)NC(=O)[C@H](C)NC(=O)[C@@H](NC(=O)[C@H](Cc1ccccc1)NC(=O)[C@H](Cc1c[nH]c2ccccc12)NC(=O)[C@H](CC(=O)O)NC(=O)[C@H](Cc1ccc(O)cc1)NC(=O)[C@H](Cc1ccccc1)NC(=O)[C@H](CC(N)=O)NC(=O)[C@H](C)NC(=O)[C@H](CC(N)=O)NC(=O)[C@H](CCCNC(=N)N)NC(=O)[C@H](CCC(N)=O)NC(=O)[C@H](CC(C)C)NC(=O)[C@@H](N)Cc1c[nH]c2ccccc12)C(C)C)C(=O)NCC(=O)O [Clone S237] | 0
CC(C)C[C@H](NC(=O)[C@H](CCC(=O)O)NC(=O)[C@H](C)NC(=O)[C@@H](NC(=O)[C@H](Cc1ccccc1)NC(=O)[C@H](Cc1c[nH]c2ccccc12)NC(=O)[C@H](CC(=O)O)NC(=O)[C@H](Cc1ccc(O)cc1)NC(=O)[C@H](Cc1ccccc1)NC(=O)[C@H](CC(N)=O)NC(=O)[C@H](C)NC(=O)[C@H](CC(N)=O)NC(=O)[C@H](CCCNC(=N)N)NC(=O)[C@H](CCC(N)=O)NC(=O)[C@@H](N)CC(C)C)C(C)C)C(=O)NCC(=O)O [Clone S238] | 0
CC(C)C[C@H](NC(=O)[C@H](CCC(=O)O)NC(=O)[C@H](C)NC(=O)[C@@H](NC(=O)[C@H](Cc1ccccc1)NC(=O)[C@H](Cc1c[nH]c2ccccc12)NC(=O)[C@H](CC(=O)O)NC(=O)[C@H](Cc1ccc(O)cc1)NC(=O)[C@H](Cc1ccccc1)NC(=O)[C@H](CC(N)=O)NC(=O)[C@H](C)NC(=O)[C@H](CC(N)=O)NC(=O)[C@H](CCCNC(=N)N)NC(=O)[C@@H](N)CCC(N)=O)C(C)C)C(=O)NCC(=O)O [Clone S239] | 0
CC(C)C[C@@H]1NC(=O)[C@H](CO)NC(=O)[C@H](C)NC(=O)CNC(=O)CNC(=O)[C@H](Cc2ccccc2)NC(=O)[C@H](CC(C)C)NC(=O)[C@H](CCC(=O)O)NC(=O)[C@H](CCC(N)=O)NC(=O)[C@H](CC(C)C)NC(=O)[C@H](Cc2ccccc2)NC(=O)[C@@H](NC(=O)[C@H](CC(C)C)NC(=O)[C@@H]2CCCN2)CSSC[C@@H](C(=O)N[C@@H](CO)C(=O)NCC(N)=O)NC(=O)[C@H](Cc2ccc(O)cc2)NC(=O)CNC(=O)CNC1=O [Clone S262] (HELM PEPTIDE1{P.L.C.F.L.Q.E.L.F.G.G.A.S.L.G.G.Y.C.S.G.[am]}$PEPTIDE1,PEPTIDE1,3:R3-18:R3$$$V2.0; N-terminus assumed; bridges inferred) | 0
CC[C@H](C)[C@@H]1NC(=O)[C@H](CCC(=O)O)NC(=O)[C@@H](NC(=O)[C@H](Cc2c[nH]c3ccccc23)NC(=O)[C@@H](NC(=O)[C@H](Cc2c[nH]c3ccccc23)NC(=O)[C@H](C)NC(=O)[C@H](CCCNC(=N)N)NC(=O)[C@H](CCC(=O)O)NC(=O)[C@H](CCC(N)=O)NC(=O)[C@H](CCC(=O)O)NC(=O)[C@H](CC(C)C)NC(=O)[C@@H](N)Cc2c[nH]c3ccccc23)[C@@H](C)CC)CSSC[C@@H](C(=O)N[C@@H](CCCNC(=N)N)C(=O)N[C@@H](C)C(N)=O)NC(=O)CNC(=O)[C@H](CO)NC(=O)CNC(=O)[C@H](CCC(N)=O)NC1=O [Clone S263] (HELM PEPTIDE1{W.L.E.Q.E.R.A.W.I.W.C.E.I.Q.G.S.G.C.R.A.[am]}$PEPTIDE1,PEPTIDE1,11:R3-18:R3$$$V2.0; N-terminus assumed; bridges inferred) | 0
CC(C)C[C@@H]1NC(=O)[C@H](CCC(=O)O)NC(=O)[C@@H](NC(=O)[C@H](CC(C)C)NC(=O)[C@@H](NC(=O)[C@H](CCCNC(=N)N)NC(=O)[C@H](CC(C)C)NC(=O)[C@@H](N)CC(=O)O)C(C)C)CSSC[C@@H](C(=O)N[C@@H](CO)C(=O)N[C@@H](CCC(=O)O)C(N)=O)NC(=O)[C@H](Cc2ccc(O)cc2)NC(=O)CNC(=O)[C@H](CC(C)C)NC(=O)[C@H](C(C)C)NC(=O)[C@H](Cc2ccc(O)cc2)NC(=O)[C@H](C)NC(=O)CNC(=O)CNC(=O)[C@H](Cc2ccccc2)NC1=O [Clone S281] (HELM PEPTIDE1{D.L.R.V.L.C.E.L.F.G.G.A.Y.V.L.G.Y.C.S.E.[am]}$PEPTIDE1,PEPTIDE1,6:R3-18:R3$$$V2.0; N-terminus assumed; bridges inferred) | 0
EFHENFYDWFVRQVSEE [Clone S115] | +
FHENAYDWFVRQVSKK [Clone S219] | 0
FHENFADWFVRQVSKK [Clone S220] | 0
FHENFTDWAVRQVSKK [Clone S223] | 0
FHENFYDWFVRQVSK [Clone S158] | +
FQSLLEELVWGAPLFRYGTG [Clone S224] | 0
GRVDWLQRNANFYDWFVA [Clone S250] | 0
GRVDWLQRNANFYDWFVAE [Clone S249] | 0
HDPFYSMMKSLLK [Clone S120] | 0
HETFYSMIRSLAK [Clone S117] | 0
HPPLSELKLFLIKK [Clone S124] | 0
HPSTNQMLMKLFK [Clone S123] | 0
HPTSKEIYAKLLK [Clone S122] | 0
IQGWEPFYGWFDDWAQMFEE-NH2 [Clone S264] | 0
NSFYEALRMLSSK [Clone S121] | 0
SLNFYDALQLLAKK [Clone S119] | 0
SSNFYQALMLLS [Clone S129] | 0

Reference: EP1383793B1 (priority 2000, dated 2001)
